Assay results: EP4722201A1, “3-PHENYLISOXAZOLINE-5-CARBOXAMIDE COMPOUND, AND PREPARATION METHOD THEREFOR, HERBICIDAL COMPOSITION THEREOF AND USE THEREOF” (Jiangsu Flag Chemical Industry Co., Ltd, priority 2023, dated 2024)

What was measured:
Assay in all cases: Indoor herbicide activity determination, Seed Treatment; pre-emergence (soil spray)
Format in all cases: in vivo
Alopecurus japonicus = system: Alopecurus japonicus
Summary of the method: (§1)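 Weed seeds sown in 7 cm pots of sandy nutrient soil (pH 6.1, 1% organic matter), kept 24 h in a constant-temperature lit room, then soil sprayed by traveling spray tower (flow 390 mL/min). Fresh-weight inhibition % versus untreated controls scored 21 days later.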

Digitaria sanguinalis = conditions: read-out: Herbicidal activities (inhibition rate) Digitaria sanguinalis; for inhibition at 120 g/ha: 120 g a.i./ha; for inhibition at 60 g/ha: 60 g a.i./ha
Summary of the method: as §1

Aegilops tauschii = conditions: read-out: Herbicidal activities (inhibition rate) Aegilops tauschii; for inhibition at 120 g/ha: 120 g a.i./ha; for inhibition at 60 g/ha: 60 g a.i./ha
Summary of the method: as §1

Alopecurus myosuroides = system: Alopecurus myosuroides
Summary of the method: as §1

Leptochloa chinensis = system: Leptochloa chinensis
Summary of the method: as §1

Lolium multiflorum = system: Lolium multiflorum
Summary of the method: as §1

Cyperus iria = conditions: read-out: Herbicidal activities (inhibition rate) Cyperus iria; for inhibition at 120 g/ha: 120 g a.i./ha; for inhibition at 60 g/ha: 60 g a.i./ha
Summary of the method: as §1

Eleusine indica = system: Eleusine indica
Summary of the method: as §1

Eclipta prostrata = conditions: 60 g a.i./ha, read-out: Herbicidal activities (inhibition rate) Eclipta prostrata
Summary of the method: as §1

Row | Structure (SMILES) | Herbicidal activities, Alopecurus japonicus (inhibition rate class) (Alopecurus japonicus; Dosage 240 g a.i./ha) | inhibition at 120 g/ha (Digitaria sanguinalis) | inhibition at 120 g/ha (Aegilops tauschii) | Herbicidal activities, Alopecurus myosuroides (inhibition rate class) (Alopecurus myosuroides; Dosage 240 g a.i./ha) | Herbicidal activities, Leptochloa chinensis (inhibition rate class) (Leptochloa chinensis; Dosage 240 g a.i./ha) | Herbicidal activities, Lolium multiflorum (inhibition rate class) (Lolium multiflorum; Dosage 240 g a.i./ha) | inhibition at 120 g/ha (Cyperus iria) | Herbicidal activities, Alopecurus japonicus (inhibition rate class) (Alopecurus japonicus; Dosage 120 g a.i./ha) | inhibition at 60 g/ha (Digitaria sanguinalis) | inhibition at 60 g/ha (Aegilops tauschii) | Herbicidal activities, Alopecurus myosuroides (inhibition rate class) (Alopecurus myosuroides; Dosage 120 g a.i./ha) | Herbicidal activities, Eleusine indica (inhibition rate class) (Eleusine indica; Dosage 120 g a.i./ha) | Herbicidal activities, Leptochloa chinensis (inhibition rate class) (Leptochloa chinensis; Dosage 120 g a.i./ha) | Herbicidal activities, Lolium multiflorum (inhibition rate class) (Lolium multiflorum; Dosage 120 g a.i./ha) | also measured
1 | COC(=O)[C@H]1C[C@@H](NC(=O)C2(C)CC(c3cc(F)cc(OC(F)(F)F)c3)=NO2)CO1 (mixture of isomers) [I-380] | A (A indicates that the inhibition rate was greater than or equal to 80% to 100%) | 80 to 100% | 80 to 100% | A (A indicates that the inhibition rate was greater than or equal to 80% to 100%) | A (A indicates that the inhibition rate was greater than or equal to 80% to 100%) | A (A indicates that the inhibition rate was greater than or equal to 80% to 100%) | 80 to 100% |  |  |  |  |  |  |  | 
2 | C=C[C@]1(C(=O)N[C@H]2C[C@@H](C(=O)OCC(F)(F)F)C2)CC(c2cc(F)cc(F)c2)=NO1 [I-15] |  |  |  |  |  |  |  | A (A indicates that the inhibition rate was greater than or equal to 80% to 100%) | 60 to 80% | 80 to 100% | A (A indicates that the inhibition rate was greater than or equal to 80% to 100%) | A (A indicates that the inhibition rate was greater than or equal to 80% to 100%) | A (A indicates that the inhibition rate was greater than or equal to 80% to 100%) | A (A indicates that the inhibition rate was greater than or equal to 80% to 100%) | 
3 | C=C[C@]1(C(=O)N[C@H]2C[C@@H](C(=O)O[C@H](C)COC)C2)CC(c2cc(F)cc(F)c2)=NO1 [I-19] |  |  |  |  |  |  |  | A (A indicates that the inhibition rate was greater than or equal to 80% to 100%) | 80 to 100% | 80 to 100% | A (A indicates that the inhibition rate was greater than or equal to 80% to 100%) | A (A indicates that the inhibition rate was greater than or equal to 80% to 100%) | A (A indicates that the inhibition rate was greater than or equal to 80% to 100%) | A (A indicates that the inhibition rate was greater than or equal to 80% to 100%) | inhibition at 60 g/ha (Cyperus iria): 60 to 80%
4 | CC[C@@H](C)OC(=O)[C@H]1C[C@@H](NC(=O)[C@@]2(C)CC(c3cc(F)cc(F)c3)=NO2)C1 [I-128] |  |  |  |  |  |  |  | A (A indicates that the inhibition rate was greater than or equal to 80% to 100%) | 60 to 80% | 80 to 100% | A (A indicates that the inhibition rate was greater than or equal to 80% to 100%) | A (A indicates that the inhibition rate was greater than or equal to 80% to 100%) | A (A indicates that the inhibition rate was greater than or equal to 80% to 100%) | A (A indicates that the inhibition rate was greater than or equal to 80% to 100%) | 
5 | CC[C@H](C)OC(=O)[C@H]1C[C@@H](NC(=O)[C@@]2(C)CC(c3cc(F)cc(F)c3)=NO2)C1 [I-129] |  |  |  |  |  |  |  | A (A indicates that the inhibition rate was greater than or equal to 80% to 100%) | 60 to 80% | 80 to 100% | A (A indicates that the inhibition rate was greater than or equal to 80% to 100%) | A (A indicates that the inhibition rate was greater than or equal to 80% to 100%) | B (B indicates that the inhibition rate was greater than or equal to 60% to less than 80%) | A (A indicates that the inhibition rate was greater than or equal to 80% to 100%) | 
6 | CSCCOC(=O)C1CC(NC(=O)C2(C)CC(c3cc(F)cc(OC(F)(F)F)c3)=NO2)CO1 (stereo not shown) [I-382] | A (A indicates that the inhibition rate was greater than or equal to 80% to 100%) | 80 to 100% | 80 to 100% | A (A indicates that the inhibition rate was greater than or equal to 80% to 100%) | A (A indicates that the inhibition rate was greater than or equal to 80% to 100%) | A (A indicates that the inhibition rate was greater than or equal to 80% to 100%) | 80 to 100% |  |  |  |  |  |  |  | 
7 | C[S+]([O-])CCOC(=O)C1CC(NC(=O)C2(C)CC(c3cc(F)cc(OC(F)(F)F)c3)=NO2)CO1 (stereo not shown) [I-383] | A (A indicates that the inhibition rate was greater than or equal to 80% to 100%) | 80 to 100% | 80 to 100% | A (A indicates that the inhibition rate was greater than or equal to 80% to 100%) | A (A indicates that the inhibition rate was greater than or equal to 80% to 100%) | A (A indicates that the inhibition rate was greater than or equal to 80% to 100%) | 60 to 80% |  |  |  |  |  |  |  | 
8 | CC1(C(=O)NC2COC(C(=O)OCCS(C)(=O)=O)C2)CC(c2cc(F)cc(OC(F)(F)F)c2)=NO1 (stereo not shown) [I-384] | A (A indicates that the inhibition rate was greater than or equal to 80% to 100%) | 80 to 100% | 80 to 100% | A (A indicates that the inhibition rate was greater than or equal to 80% to 100%) | A (A indicates that the inhibition rate was greater than or equal to 80% to 100%) | A (A indicates that the inhibition rate was greater than or equal to 80% to 100%) | 60 to 80% |  |  |  |  |  |  |  | 
9 | COC(=O)C1CC(NC(=O)C2(C)CC(c3cc(F)cc(OC(F)F)c3)=NO2)CO1 (stereo not shown) [I-385] | A (A indicates that the inhibition rate was greater than or equal to 80% to 100%) | 60 to 80% | 80 to 100% | A (A indicates that the inhibition rate was greater than or equal to 80% to 100%) | A (A indicates that the inhibition rate was greater than or equal to 80% to 100%) | B (B indicates that the inhibition rate was greater than or equal to 60% to less than 80%) |  |  |  |  |  |  |  |  | 
10 | COC(=O)[C@@H]1C=C[C@H](NC(=O)C2(C)CC(c3cc(F)cc(OC(F)(F)F)c3)=NO2)C1 (stereo partly shown) [I-489] |  | 60 to 80% | 80 to 100% |  |  |  | 80 to 100% |  |  |  |  |  |  |  | Herbicidal activity (inhibition rate class), Alopecurus japonicus (Alopecurus japonicus; Dosage 240 g a.i./ha): A (A indicates that the inhibition rate was greater than or equal to 80% to 100%); Herbicidal activity (inhibition rate class), Alopecurus myosuroides (Alopecurus myosuroides; Dosage 240 g a.i./ha): A (A indicates that the inhibition rate was greater than or equal to 80% to 100%); Herbicidal activity (inhibition rate class), Eleusine indica (Eleusine indica; Dosage 240 g a.i./ha): A (A indicates that the inhibition rate was greater than or equal to 80% to 100%); Herbicidal activity (inhibition rate class), Leptochloa chinensis (Leptochloa chinensis; Dosage 240 g a.i./ha): A (A indicates that the inhibition rate was greater than or equal to 80% to 100%); Herbicidal activity (inhibition rate class), Lolium multiflorum (Lolium multiflorum; Dosage 240 g a.i./ha): A (A indicates that the inhibition rate was greater than or equal to 80% to 100%)
11 | O=C(OCC1CCCC1)[C@@H]1C=C[C@H](NC(=O)[C@@]2(C(F)(F)F)CC(c3cc(F)cc(C(F)(F)F)c3)=NO2)C1 [I-519] |  |  |  |  |  |  |  |  | 80 to 100% |  |  |  |  |  | Herbicidal activity (inhibition rate class), Alopecurus japonicus (Alopecurus japonicus; Dosage 120 g a.i./ha): A (A indicates that the inhibition rate was greater than or equal to 80% to 100%); inhibition at 60 g/ha (Eclipta prostrata): 80 to 100%; Herbicidal activity (inhibition rate class), Alopecurus myosuroides (Alopecurus myosuroides; Dosage 120 g a.i./ha): A (A indicates that the inhibition rate was greater than or equal to 80% to 100%); Herbicidal activity (inhibition rate class), Eleusine indica (Eleusine indica; Dosage 120 g a.i./ha): A (A indicates that the inhibition rate was greater than or equal to 80% to 100%); Herbicidal activity (inhibition rate class), Leptochloa chinensis (Leptochloa chinensis; Dosage 120 g a.i./ha): A (A indicates that the inhibition rate was greater than or equal to 80% to 100%); Herbicidal activity (inhibition rate class), Lolium multiflorum (Lolium multiflorum; Dosage 120 g a.i./ha): A (A indicates that the inhibition rate was greater than or equal to 80% to 100%); inhibition at 60 g/ha (Cyperus iria): 80 to 100%
